{
  "source": "patent US20250270209A1",
  "about": "(INTERLINE THERAPEUTICS, INC., priority 2022, published 2025)",
  "key": {"[1]": {"biological_target": "LRRK2 wild type enzyme (Homo sapiens, UniProt Q5S007)", "sequence (Q5S007 whole entry)": "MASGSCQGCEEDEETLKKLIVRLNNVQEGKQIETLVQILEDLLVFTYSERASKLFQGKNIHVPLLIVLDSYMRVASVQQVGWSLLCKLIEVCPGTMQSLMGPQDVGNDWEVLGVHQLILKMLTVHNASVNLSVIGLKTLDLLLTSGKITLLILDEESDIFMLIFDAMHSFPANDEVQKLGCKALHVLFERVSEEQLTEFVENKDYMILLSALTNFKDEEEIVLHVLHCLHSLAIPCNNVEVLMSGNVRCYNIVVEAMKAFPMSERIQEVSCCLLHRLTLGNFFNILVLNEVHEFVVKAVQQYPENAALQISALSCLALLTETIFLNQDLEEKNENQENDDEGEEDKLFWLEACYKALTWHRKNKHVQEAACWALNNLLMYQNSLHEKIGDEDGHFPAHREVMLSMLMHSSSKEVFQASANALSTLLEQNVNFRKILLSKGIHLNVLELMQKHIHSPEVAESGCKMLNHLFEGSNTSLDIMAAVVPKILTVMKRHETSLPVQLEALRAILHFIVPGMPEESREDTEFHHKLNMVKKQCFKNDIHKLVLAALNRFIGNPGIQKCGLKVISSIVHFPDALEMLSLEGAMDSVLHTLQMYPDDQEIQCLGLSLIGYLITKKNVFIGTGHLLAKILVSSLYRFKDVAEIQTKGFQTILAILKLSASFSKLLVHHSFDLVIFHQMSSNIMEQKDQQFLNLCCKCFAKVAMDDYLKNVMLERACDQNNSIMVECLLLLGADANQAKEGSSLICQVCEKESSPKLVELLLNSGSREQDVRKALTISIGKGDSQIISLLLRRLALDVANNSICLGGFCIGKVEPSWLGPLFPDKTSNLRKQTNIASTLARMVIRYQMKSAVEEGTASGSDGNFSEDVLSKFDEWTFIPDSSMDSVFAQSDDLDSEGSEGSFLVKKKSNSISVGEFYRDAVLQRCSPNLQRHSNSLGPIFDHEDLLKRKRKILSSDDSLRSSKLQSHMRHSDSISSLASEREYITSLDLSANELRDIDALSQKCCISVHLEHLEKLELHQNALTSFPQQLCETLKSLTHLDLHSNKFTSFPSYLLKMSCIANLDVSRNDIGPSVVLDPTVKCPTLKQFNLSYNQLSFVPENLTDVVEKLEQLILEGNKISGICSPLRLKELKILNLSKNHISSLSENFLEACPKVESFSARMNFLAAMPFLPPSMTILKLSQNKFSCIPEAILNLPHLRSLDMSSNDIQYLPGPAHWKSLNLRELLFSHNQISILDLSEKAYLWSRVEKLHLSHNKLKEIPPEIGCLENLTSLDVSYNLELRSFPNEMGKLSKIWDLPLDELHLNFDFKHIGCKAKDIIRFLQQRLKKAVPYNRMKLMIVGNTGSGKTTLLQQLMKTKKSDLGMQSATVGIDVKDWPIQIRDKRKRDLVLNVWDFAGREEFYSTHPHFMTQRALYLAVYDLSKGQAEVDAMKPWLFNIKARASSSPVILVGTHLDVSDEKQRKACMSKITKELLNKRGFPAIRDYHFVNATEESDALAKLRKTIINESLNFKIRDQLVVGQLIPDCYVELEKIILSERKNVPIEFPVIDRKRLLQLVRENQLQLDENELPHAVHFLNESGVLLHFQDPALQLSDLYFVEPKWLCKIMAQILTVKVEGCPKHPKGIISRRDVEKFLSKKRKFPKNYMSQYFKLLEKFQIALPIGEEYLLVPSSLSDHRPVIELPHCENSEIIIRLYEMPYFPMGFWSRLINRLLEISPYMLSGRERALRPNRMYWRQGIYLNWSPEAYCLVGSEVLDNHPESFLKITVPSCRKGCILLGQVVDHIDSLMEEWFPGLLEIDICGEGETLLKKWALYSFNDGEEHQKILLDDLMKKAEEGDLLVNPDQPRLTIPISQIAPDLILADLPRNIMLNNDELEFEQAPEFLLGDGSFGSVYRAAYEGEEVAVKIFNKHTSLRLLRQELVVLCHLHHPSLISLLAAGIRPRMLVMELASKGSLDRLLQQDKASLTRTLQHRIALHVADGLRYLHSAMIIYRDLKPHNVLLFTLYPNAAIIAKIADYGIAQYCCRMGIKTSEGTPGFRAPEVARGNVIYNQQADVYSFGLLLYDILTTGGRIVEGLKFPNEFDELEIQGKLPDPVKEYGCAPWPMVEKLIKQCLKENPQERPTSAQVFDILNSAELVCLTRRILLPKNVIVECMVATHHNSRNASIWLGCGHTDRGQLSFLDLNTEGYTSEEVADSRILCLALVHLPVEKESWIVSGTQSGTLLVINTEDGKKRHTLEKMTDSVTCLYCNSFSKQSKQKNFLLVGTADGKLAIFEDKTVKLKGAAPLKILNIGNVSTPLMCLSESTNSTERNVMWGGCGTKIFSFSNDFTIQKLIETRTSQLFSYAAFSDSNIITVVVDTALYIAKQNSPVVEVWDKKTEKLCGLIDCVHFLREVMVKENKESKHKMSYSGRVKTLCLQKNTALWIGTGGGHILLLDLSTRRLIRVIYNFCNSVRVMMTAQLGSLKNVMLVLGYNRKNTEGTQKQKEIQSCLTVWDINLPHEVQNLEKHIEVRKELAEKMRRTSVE", "test": "Biochemical Assay: LRRK2 TR-FRET (LanthaScreen) kinase assay with LRRKtide substrate", "conditions": "LRRK2 Inhibition, Table 8", "in_short": "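Human wild-type LRRK2 (3 nM) preincubated 15 min with compound (11-point, 3-fold, top 10 μM), then reacted 120 min at 23 °C with 400 nM LRRKtide and 25 μM ATP, pH 8.0. Stopped with EDTA; Tb-anti-pLRRKtide TR-FRET read after 30 min.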"}, "[2]": {"biological_target": "T1, wild type LRRK2 overexpressed in recombinant HEK-293T cells (Homo sapiens, UniProt Q5S007)", "T1 construct": "host or cells: HEK293T (transient transfection with pCMV-LRRK2 WT plasmid)", "T1 sequence (Q5S007 whole entry)": "as above", "test": "pS935 LRRK2 Cell Assay (HTRF, phospho-LRRK2 Ser935)", "format": "cell-based", "conditions": "LRRK2 Inhibition, Table 8, 2 hours compound incubation", "in_short": "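HEK-293T cells transiently transfected with wild-type LRRK2 for 24 h, plated overnight, then treated 2 h at 37° C with compound (top 10 μM, 3-fold, 9 doses, duplicates, 0.2% DMSO). Lysates probed overnight at 23° C by sandwich HTRF for pSer935; 665/615 nm ratio read.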"}},
  "data": [
    {"smiles": "C[C@@H]1C[C@H](n2c(CC(=O)Nc3ccon3)nc3cnc4ccc(Cl)cc4c32)CCO1", "note": "[Compound 352, N-3-isoxazolyl{3-[(2R,4R)-2-methyltetrahydro-2H-pyran-4-yl]-12-chloro-3,5,8-triazatricyclo[7.4.0.0^2,6]trideca-1(9),2(6),4,7,10,12-hexaen-4-yl}acetamide]", "values": [
      {"measurement": "IC50", "setting": "[1]", "value": 0.507, "unit": "nM"},
      {"measurement": "IC50", "setting": "[2]", "value": 4.06, "unit": "nM"}
    ]},
    {"smiles": "C[C@@H]1C[C@H](n2c(CC(=O)Nc3ncccn3)nc3cnc4ccc(Cl)cc4c32)CCO1", "note": "[Compound 353, N-2-pyrimidinyl{3-[(2R,4R)-2-methyltetrahydro-2H-pyran-4-yl]-12-chloro-3,5,8-triazatricyclo[7.4.0.0^2,6]trideca-1(9),2(6),4,7,10,12-hexaen-4-yl}acetamide]", "values": [
      {"measurement": "IC50", "setting": "[1]", "value": 0.395, "unit": "nM"},
      {"measurement": "IC50", "setting": "[2]", "value": 1.84, "unit": "nM"}
    ]},
    {"smiles": "C[C@@H]1C[C@H](n2c(CC(=O)Nc3ccn(C4CC4)n3)nc3cnc4ccc(C#N)cc4c32)CCO1", "note": "[Compound 354, N-(1-cyclopropyl-3-pyrazolyl){3-[(2R,4R)-2-methyltetrahydro-2H-pyran-4-yl]-12-cyano-3,5,8-triazatricyclo[7.4.0.0^2,6]trideca-1(9),2(6),4,7,10,12-hexaen-4-yl}acetamide]", "values": [
      {"measurement": "IC50", "setting": "[1]", "value": 0.447, "unit": "nM"},
      {"measurement": "IC50", "setting": "[2]", "value": 14.8, "unit": "nM"}
    ]},
    {"smiles": "C[C@@H]1C[C@H](n2c(CC(=O)Nc3ncc(C(F)(F)F)cn3)nc3cnc4ccc(C#N)cc4c32)CCO1", "note": "[Compound 355, N-[5-(trifluoromethyl)-2-pyrimidinyl]{3-[(2R,4R)-2-methyltetrahydro-2H-pyran-4-yl]-12-cyano-3,5,8-triazatricyclo[7.4.0.0^2,6]trideca-1(9),2(6),4,7,10,12-hexaen-4-yl}acetamide]", "values": [
      {"measurement": "IC50", "setting": "[1]", "value": 0.491, "unit": "nM"},
      {"measurement": "IC50", "setting": "[2]", "value": 3.92, "unit": "nM"}
    ]},
    {"smiles": "Cc1onc(NC(=O)Cc2nc3cnc4ccc(C#N)cc4c3n2[C@@H]2CCO[C@H](C)C2)c1C", "note": "[Compound 356, N-(4,5-dimethyl-3-isoxazolyl){3-[(2R,4R)-2-methyltetrahydro-2H-pyran-4-yl]-12-cyano-3,5,8-triazatricyclo[7.4.0.0^2,6]trideca-1(9),2(6),4,7,10,12-hexaen-4-yl}acetamide]", "values": [
      {"measurement": "IC50", "setting": "[1]", "value": 0.439, "unit": "nM"},
      {"measurement": "IC50", "setting": "[2]", "value": 7.78, "unit": "nM"}
    ]},
    {"smiles": "C[C@@H]1C[C@H](n2c(CC(=O)N[C@@H]3CCCc4cccnc43)nc3cnc4ccc(C#N)cc4c32)CCO1", "note": "[Compound 357, N-[(R)-5,6,7,8-tetrahydro-8-quinolyl]{3-[(2R,4R)-2-methyltetrahydro-2H-pyran-4-yl]-12-cyano-3,5,8-triazatricyclo[7.4.0.0^2,6]trideca-1(9),2(6),4,7,10,12-hexaen-4-yl}acetamide]", "values": [
      {"measurement": "IC50", "setting": "[1]", "value": 0.628, "unit": "nM"},
      {"measurement": "IC50", "setting": "[2]", "value": 10.7, "unit": "nM"}
    ]},
    {"smiles": "C[C@@H]1C[C@H](n2c(CC(=O)N[C@H]3CCCc4cccnc43)nc3cnc4ccc(C#N)cc4c32)CCO1", "note": "[Compound 358, N-[(S)-5,6,7,8-tetrahydro-8-quinolyl]{3-[(2R,4R)-2-methyltetrahydro-2H-pyran-4-yl]-12-cyano-3,5,8-triazatricyclo[7.4.0.0^2,6]trideca-1(9),2(6),4,7,10,12-hexaen-4-yl}acetamide]", "values": [
      {"measurement": "IC50", "setting": "[1]", "value": 0.602, "unit": "nM"},
      {"measurement": "IC50", "setting": "[2]", "value": 24.5, "unit": "nM"}
    ]},
    {"smiles": "C[C@@H]1C[C@H](n2c(CC(=O)Nc3cc(C4CC4)on3)nc3cnc4ccc(C#N)cc4c32)CCO1", "note": "[Compound 359, N-(5-cyclopropyl-3-isoxazolyl){3-[(2R,4R)-2-methyltetrahydro-2H-pyran-4-yl]-12-cyano-3,5,8-triazatricyclo[7.4.0.0^2,6]trideca-1(9),2(6),4,7,10,12-hexaen-4-yl}acetamide]", "values": [
      {"measurement": "IC50", "setting": "[1]", "value": 0.525, "unit": "nM"},
      {"measurement": "IC50", "setting": "[2]", "value": 4.76, "unit": "nM"}
    ]},
    {"smiles": "C[C@@H]1C[C@H](n2c(CC(=O)NC3(c4ncccn4)CC3)nc3cnc4ccc(C#N)cc4c32)CCO1", "note": "[Compound 360, N-[1-(2-pyrimidinyl)cyclopropyl]{3-[(2R,4R)-2-methyltetrahydro-2H-pyran-4-yl]-12-cyano-3,5,8-triazatricyclo[7.4.0.0^2,6]trideca-1,4,6,8,10,12-hexaen-4-yl}acetamide]", "values": [
      {"measurement": "IC50", "setting": "[1]", "value": 1.24, "unit": "nM"},
      {"measurement": "IC50", "setting": "[2]", "value": 104, "unit": "nM"}
    ]},
    {"smiles": "C[C@@H]1C[C@H](n2c(CC(=O)Nc3nccc(C(F)(F)F)n3)nc3cnc4ccc(C#N)cc4c32)CCO1", "note": "[Compound 361, N-[4-(trifluoromethyl)-2-pyrimidinyl]{3-[(2R,4R)-2-methyltetrahydro-2H-pyran-4-yl]-12-cyano-3,5,8-triazatricyclo[7.4.0.0^2,6]trideca-1(9),2(6),4,7,10,12-hexaen-4-yl}acetamide]", "values": [
      {"measurement": "IC50", "setting": "[1]", "value": 0.454, "unit": "nM"},
      {"measurement": "IC50", "setting": "[2]", "value": 4.23, "unit": "nM"}
    ]},
    {"smiles": "C[C@@H]1C[C@H](n2c(CC(=O)NC3CCOc4cccnc43)nc3cnc4ccc(Cl)cc4c32)CCO1", "note": "(stereo partly drawn) [Compound 362, N-(3,4-dihydro-2H-1-oxa-5-azanaphth-4-yl){3-[(2R,4R)-2-methyltetrahydro-2H-pyran-4-yl]-12-chloro-3,5,8-triazatricyclo[7.4.0.0^2,6]trideca-1(9),2(6),4,7,10,12-hexaen-4-yl}acetamide]", "values": [
      {"measurement": "IC50", "setting": "[1]", "value": 0.553, "unit": "nM"},
      {"measurement": "IC50", "setting": "[2]", "value": 10.5, "unit": "nM"}
    ]},
    {"smiles": "C[C@@H]1C[C@H](n2c(CC(=O)NC3(c4ccccn4)CC3)nc3cnc4ccc(C#N)cc4c32)CCO1", "note": "[Compound 363, N-[1-(2-pyridyl)cyclopropyl]{3-[(2R,4R)-2-methyltetrahydro-2H-pyran-4-yl]-12-cyano-3,5,8-triazatricyclo[7.4.0.0^2,6]trideca-1,4,6,8,10,12-hexaen-4-yl}acetamide]", "values": [
      {"measurement": "IC50", "setting": "[1]", "value": 0.533, "unit": "nM"},
      {"measurement": "IC50", "setting": "[2]", "value": 2.05, "unit": "nM"}
    ]},
    {"smiles": "Cc1nc2ccc(C#N)cc2c2c1nc(CC(=O)NCC1CC1)n2[C@@H]1CCO[C@H](C)C1", "note": "[Compound 364, N-cyclopropylmethyl{3-[(2R,4R)-2-methyltetrahydro-2H-pyran-4-yl]-12-cyano-7-methyl-3,5,8-triazatricyclo[7.4.0.0^2,6]trideca-1(9),2(6),4,7,10,12-hexaen-4-yl}acetamide]", "values": [
      {"measurement": "IC50", "setting": "[1]", "value": 186, "unit": "nM"},
      {"measurement": "IC50", "setting": "[2]", "value": 6770, "unit": "nM"}
    ]},
    {"smiles": "C[C@@H]1C[C@H](n2c(CC(=O)N[C@@H]3C[C@H]3c3cccnc3)nc3cnc4ccc(C#N)cc4c32)CCO1", "note": "[Compound 365, N-[(1R,2S)-2-(3-pyridyl)cyclopropyl]{3-[(2R,4R)-2-methyltetrahydro-2H-pyran-4-yl]-12-cyano-3,5,8-triazatricyclo[7.4.0.0^2,6]trideca-1(13),2(6),4,7,9,11-hexaen-4-yl}acetamide]", "values": [
      {"measurement": "IC50", "setting": "[1]", "value": 0.536, "unit": "nM"},
      {"measurement": "IC50", "setting": "[2]", "value": 23.3, "unit": "nM"}
    ]},
    {"smiles": "C[C@@H]1C[C@H](n2c(CC(=O)NCCc3ccccn3)nc3cnc4ccc(C#N)cc4c32)CCO1", "note": "[Compound 366, N-[2-(2-pyridyl)ethyl]{3-[(2R,4R)-2-methyltetrahydro-2H-pyran-4-yl]-12-cyano-3,5,8-triazatricyclo[7.4.0.0^2,6]trideca-1,4,6,8,10,12-hexaen-4-yl}acetamide]", "values": [
      {"measurement": "IC50", "setting": "[1]", "value": 0.587, "unit": "nM"},
      {"measurement": "IC50", "setting": "[2]", "value": 28.4, "unit": "nM"}
    ]},
    {"smiles": "C[C@@H]1C[C@H](n2c(CC(=O)N[C@H]3C[C@@H](OCc4ccn(C)n4)C3)nc3cnc4ccc(C#N)cc4c32)CCO1", "note": "[Compound 367, N-{(1s,3s)-3-[(1-methyl-3-pyrazolyl)methoxy]cyclobutyl}{3-[(2R,4R)-2-methyltetrahydro-2H-pyran-4-yl]-12-cyano-3,5,8-triazatricyclo[7.4.0.0^2,6]trideca-1,4,6,8,10,12-hexaen-4-yl}acetamide]", "values": [
      {"measurement": "IC50", "setting": "[1]", "value": 0.597, "unit": "nM"},
      {"measurement": "IC50", "setting": "[2]", "value": 94.8, "unit": "nM"}
    ]},
    {"smiles": "Cc1nc(NC(=O)Cc2nc3cnc4ccc(C#N)cc4c3n2[C@@H]2CCO[C@H](C)C2)no1", "note": "[Compound 368, N-(5-methyl-1,2,4-oxadiazol-3-yl){3-[(2R,4R)-2-methyltetrahydro-2H-pyran-4-yl]-12-cyano-3,5,8-triazatricyclo[7.4.0.0^2,6]trideca-1(9),2(6),4,7,10,12-hexaen-4-yl}acetamide]", "values": [
      {"measurement": "IC50", "setting": "[1]", "value": 0.509, "unit": "nM"},
      {"measurement": "IC50", "setting": "[2]", "value": 16.5, "unit": "nM"}
    ]},
    {"smiles": "CC(C(=O)NCC1CC1)c1nc2cnc3ccc(C#N)cc3c2n1[C@@H]1CCO[C@H](C)C1", "note": "(stereo partly drawn) [Compound 369, N-cyclopropylmethyl2-{3-[(2R,4R)-2-methyltetrahydro-2H-pyran-4-yl]-12-cyano-3,5,8-triazatricyclo[7.4.0.0^2,6]trideca-1(13),2(6),4,7,9,11-hexaen-4-yl}propionamide]", "values": [
      {"measurement": "IC50", "setting": "[1]", "value": 13.8, "unit": "nM"},
      {"measurement": "IC50", "setting": "[2]", "value": 801, "unit": "nM"}
    ]},
    {"smiles": "C[C@@H]1C[C@H](n2c(CC(=O)NCc3cccc(C(F)(F)F)n3)nc3cnc4ccc(C#N)cc4c32)CCO1", "note": "[Compound 370, N-{[6-(trifluoromethyl)-2-pyridyl]methyl}{3-[(2R,4R)-2-methyltetrahydro-2H-pyran-4-yl]-12-cyano-3,5,8-triazatricyclo[7.4.0.0^2,6]trideca-1(9),2(6),4,7,10,12-hexaen-4-yl}acetamide]", "values": [
      {"measurement": "IC50", "setting": "[1]", "value": 0.295, "unit": "nM"},
      {"measurement": "IC50", "setting": "[2]", "value": 2.74, "unit": "nM"}
    ]},
    {"smiles": "C[C@@H]1C[C@H](n2c(CC(=O)Nc3cnccn3)nc3cnc4ccc(Cl)cc4c32)CCO1", "note": "[Compound 371, N-2-pyrazinyl{3-[(2R,4R)-2-methyltetrahydro-2H-pyran-4-yl]-12-chloro-3,5,8-triazatricyclo[7.4.0.0^2,6]trideca-1(9),2(6),4,7,10,12-hexaen-4-yl}acetamide]", "values": [
      {"measurement": "IC50", "setting": "[1]", "value": 1.13, "unit": "nM"},
      {"measurement": "IC50", "setting": "[2]", "value": 5, "unit": "nM"}
    ]}
  ]
}
